Results on 15 molecules are retold here after US10717733B2, “Haloallylamine indole and azaindole derivative inhibitors of lysyl oxidases and uses thereof” (PHARMAXIS LTD., priority 2016, dated 2020).

For one experiment, the target named is Recombinant human MAO-B (Homo sapiens (Human), UniProt P27338). Nature of the experiment: Inhibition of human recombinant MAO-B. It is filed as biochemical. The settings on record: benzylamine 100 μM. An outline of the steps: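 Recombinant human MAO-B used as enzyme source (0.06 mg/mL, stated concentration). Run as for the human SSAO/VAP-1 assay, except benzylamine substrate at 100 μM.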
Chain of Recombinant human MAO-B (P27338 whole entry): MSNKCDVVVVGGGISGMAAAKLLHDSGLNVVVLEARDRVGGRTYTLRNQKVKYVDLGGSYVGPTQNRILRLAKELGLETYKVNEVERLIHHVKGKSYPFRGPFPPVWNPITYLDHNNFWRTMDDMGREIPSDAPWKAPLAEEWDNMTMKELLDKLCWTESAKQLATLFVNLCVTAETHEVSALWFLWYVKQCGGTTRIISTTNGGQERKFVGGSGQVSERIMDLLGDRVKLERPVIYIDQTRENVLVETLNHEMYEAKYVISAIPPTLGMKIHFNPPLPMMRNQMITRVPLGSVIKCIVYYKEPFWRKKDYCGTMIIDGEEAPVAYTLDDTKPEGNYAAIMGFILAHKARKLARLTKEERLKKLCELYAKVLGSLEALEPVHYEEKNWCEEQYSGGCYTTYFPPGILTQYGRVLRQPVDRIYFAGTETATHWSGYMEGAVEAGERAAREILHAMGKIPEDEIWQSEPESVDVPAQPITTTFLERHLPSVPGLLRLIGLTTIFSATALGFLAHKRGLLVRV

A further experiment concerns the target Human LOXL2 (Homo sapiens (Human), UniProt Q9Y4K0). Kind of experiment: LOXL2 inhibition, peroxidase-coupled Amplex Red amine oxidase assay. It is filed as biochemical. The settings on record: 30 min preincubation at 37° C., putrescine substrate. An outline of the steps: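 Enzyme in 1.2 M urea, 50 mM sodium borate pH 8.2 with 1 μM mofegiline and 0.5 mM pargyline, preincubated 30 min at 37° C with compound (11-point CRC). Putrescine at twice KM (10 mM for LOXL2) with Amplex Red/HRP; fluorescence (ex 565, em 590) read kinetically 30 min; IC50 from slopes.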

The test system of experiment [1] is primary fibroblasts from confirmed cases of IPF. Nature of the experiment: Collagen cross-link formation in in vitro fibroblastic foci model of IPF. In kind it is cell-based, human. The settings on record: TGF-β1 stimulated foci, six weeks culture, FIGS. 7a and 7b. From the text:
The lung tissue of patients with idiopathic pulmonary fibrosis (IPF) is characterised by dense collections of myofibroblasts and extracellular matrix (ECM) termed ‘fibroblastic foci’. Using a novel in vitro model of fibroblastic foci (Jones et al., AJRCCM 191; 2015:A4912) the formation of lysyl oxidase (LOX) mediated collagen cross-links and the effects of the nonselective LOX inhibitor β-aminopropionitrile (BAPN) as well lysyl oxidase like-2 (LOXL2)-selective inhibitors were investigated.
Cultures of primary fibroblasts were grown out from clinical diagnostic biopsies of fibrotic lung and stored in liquid nitrogen. […]
To quantify collagen cross-links (Robins Biochem Soc Trans 2007; 35(5): 849-852; Saito et al Anal. Biochem. 1997; 253: 26-32; Sims, Avery & Bailey Methods in Molecular Biology 2000; vol 139: 11-26), cultures were treated with potassium borohydride to stabilise the reducible immature cross-links, and hydrolysed in 6N HCl at 100° C. for 16 hr. Total collagen content was assessed by hydroxyproline assay. Immature cross-links were assessed by LC/MS/MS and mature pyridinoline cross-links by ELISA. Cross-link data is expressed as moles of cross-link per mole collagen.

In experiment [2] the target is human recombinant SSAO/VAP-1 (Homo sapiens (Human), UniProt Q16853). Kind of experiment: Inhibition of human recombinant SSAO/VAP-1 amine oxidase activity. In kind it is biochemical. As to conditions: 30 min preincubation at 37° C., 600 μM benzylamine. Put shortly: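 Purified SSAO/VAP-1 (residues 34-763, expressed in CHO Lec 8 cells; 0.25 μg/mL) preincubated 30 min at 37° C with compound in 0.1 M sodium phosphate pH 7.4. Reaction mix of 600 μM benzylamine, 120 μM Amplex Red and 1.5 U/mL HRP added; fluorescence (ex 565/em 590 nm) read every 2.5 min for 30 min; IC50 from kinetic slopes over 4-11 point curves.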
Chain of human recombinant SSAO/VAP-1 (Q16853 34-763): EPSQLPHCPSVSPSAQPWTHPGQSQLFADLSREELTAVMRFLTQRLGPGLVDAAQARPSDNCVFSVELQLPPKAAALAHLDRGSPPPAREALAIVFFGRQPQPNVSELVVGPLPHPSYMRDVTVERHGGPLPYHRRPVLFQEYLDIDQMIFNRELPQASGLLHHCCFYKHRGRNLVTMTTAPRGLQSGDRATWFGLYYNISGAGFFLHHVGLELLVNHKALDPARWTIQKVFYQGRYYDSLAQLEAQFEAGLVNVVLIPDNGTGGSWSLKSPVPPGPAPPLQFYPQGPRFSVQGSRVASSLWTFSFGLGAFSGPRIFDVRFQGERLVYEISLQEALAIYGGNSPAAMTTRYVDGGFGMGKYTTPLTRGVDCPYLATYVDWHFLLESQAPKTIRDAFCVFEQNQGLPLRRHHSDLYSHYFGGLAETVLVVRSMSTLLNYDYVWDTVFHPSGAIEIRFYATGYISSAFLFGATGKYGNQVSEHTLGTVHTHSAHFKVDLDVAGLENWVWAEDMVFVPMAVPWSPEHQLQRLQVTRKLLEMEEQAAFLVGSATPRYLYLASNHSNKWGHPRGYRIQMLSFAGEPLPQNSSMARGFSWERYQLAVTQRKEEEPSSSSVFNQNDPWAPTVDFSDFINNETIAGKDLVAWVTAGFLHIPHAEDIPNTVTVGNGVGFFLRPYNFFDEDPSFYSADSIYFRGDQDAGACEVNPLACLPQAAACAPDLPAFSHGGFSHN

The target of another experiment is Bovine LOX (Bos taurus (Bovine), UniProt P33072). Nature of the experiment: LOX inhibition, peroxidase-coupled Amplex Red amine oxidase assay. It is filed as biochemical. The settings on record: 30 min preincubation at 37° C., putrescine substrate. An outline of the steps: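 Bovine LOX in 1.2 M urea, 50 mM sodium borate pH 8.2 with 1 μM mofegiline and 0.5 mM pargyline; putrescine at twice KM (e.g. 20 mM for LOX) with Amplex Red/HRP. Fluorescence (ex 565/em 590 nm) read kinetically over 30 min at 37–45 °C; IC50 from slopes.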
Chain of Bovine LOX (P33072 170-418): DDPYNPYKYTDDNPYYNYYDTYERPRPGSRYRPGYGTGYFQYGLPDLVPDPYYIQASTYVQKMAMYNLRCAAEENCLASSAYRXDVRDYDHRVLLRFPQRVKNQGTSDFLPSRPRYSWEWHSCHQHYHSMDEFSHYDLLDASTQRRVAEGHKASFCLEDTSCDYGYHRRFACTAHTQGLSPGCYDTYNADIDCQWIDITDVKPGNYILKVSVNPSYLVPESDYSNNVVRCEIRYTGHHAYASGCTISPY

Where a name gives a salt, the structure may show the parent alone.

Chain of Human LOXL2 (Q9Y4K0 26-774): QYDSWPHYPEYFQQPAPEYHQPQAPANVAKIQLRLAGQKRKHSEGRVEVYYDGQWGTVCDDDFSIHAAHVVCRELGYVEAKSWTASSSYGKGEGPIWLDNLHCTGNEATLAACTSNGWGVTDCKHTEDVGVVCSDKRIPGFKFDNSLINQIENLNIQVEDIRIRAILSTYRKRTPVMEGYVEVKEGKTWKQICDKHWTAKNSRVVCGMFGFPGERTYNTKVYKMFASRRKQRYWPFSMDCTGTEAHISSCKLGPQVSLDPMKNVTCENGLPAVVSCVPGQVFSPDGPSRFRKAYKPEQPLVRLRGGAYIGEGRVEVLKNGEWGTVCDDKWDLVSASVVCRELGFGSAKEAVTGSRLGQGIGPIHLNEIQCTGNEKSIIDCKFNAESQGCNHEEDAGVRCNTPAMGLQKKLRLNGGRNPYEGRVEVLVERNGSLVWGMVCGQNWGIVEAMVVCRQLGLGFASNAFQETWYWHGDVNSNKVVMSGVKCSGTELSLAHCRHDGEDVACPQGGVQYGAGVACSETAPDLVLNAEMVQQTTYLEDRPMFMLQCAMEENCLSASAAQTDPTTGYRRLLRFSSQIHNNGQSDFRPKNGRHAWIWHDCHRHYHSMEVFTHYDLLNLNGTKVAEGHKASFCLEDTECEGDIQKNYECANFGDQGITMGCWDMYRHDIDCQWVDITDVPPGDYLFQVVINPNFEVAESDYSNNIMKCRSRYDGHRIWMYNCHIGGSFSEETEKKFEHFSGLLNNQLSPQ

As usually defined, the IC50 is the concentration at which inhibition is half-maximal. `N#CCCN` [BAPN, β-aminopropionitrile, reference compound]: the IC50 on Recombinant human MAO-B was greater than 3000 nM; against Human LOXL2, less than 1000 nM; in experiment [2] it was greater than 3000 nM; against Bovine LOX, greater than 1000 nM. In addition, the “collagen cross-link formation (immature and mature cross-links)” value in experiment [1] is “reduced cross-link formation in a concentration dependent manner”.

For `COc1cc(-c2c(C)n(C/C(F)=C/CN)c3ccc(S(C)(=O)=O)cc23)ccn1` [Compound 98, (Z)-3-fluoro-4-(3-(2-methoxypyridin-4-yl)-2-methyl-5-(methylsulfonyl)-1H-indol-1-yl)but-2-en-1-amine], the IC50 on Recombinant human MAO-B was greater than 3000 nM; against Human LOXL2, less than 300 nM; in experiment [2], greater than 3000 nM; at Bovine LOX, greater than 300 nM.

In the case of `CN(C)S(=O)(=O)c1cccc(-c2c(Cl)n(C/C(F)=C/CN)c3cccnc23)c1` [Compound 99, (Z)-3-(1-(4-amino-2-fluorobut-2-en-1-yl)-2-chloro-1H-pyrrolo[3,2-b]pyridin-3-yl)-N,N-dimethylbenzenesulfonamide], the IC50 on Recombinant human MAO-B was greater than 3000 nM; against Human LOXL2 it was less than 300 nM; in experiment [2], greater than 3000 nM; at Bovine LOX, greater than 300 nM.

On to `CN(C)S(=O)(=O)c1cccc(-c2c(Cl)n(C/C(F)=C/CN)c3ccc(S(C)(=O)=O)cc23)c1` [Compound 100, (Z)-3-(1-(4-amino-2-fluorobut-2-en-1-yl)-2-chloro-5-(methylsulfonyl)-1H-indol-3-yl)-N,N-dimethylbenzenesulfonamide], for which the IC50 at Recombinant human MAO-B was greater than 3000 nM; at Human LOXL2, less than 300 nM; in experiment [2], greater than 3000 nM; against Bovine LOX, greater than 300 nM.

For `Cc1cc(-c2c(C)n(C/C(F)=C/CN)c3ccc([N+](=O)[O-])cc23)cc(C)n1` [Compound 101, (Z)-4-(3-(2,6-dimethylpyridin-4-yl)-2-methyl-5-nitro-1H-indol-1-yl)-3-fluorobut-2-en-1-amine], the IC50 is greater than 3000 nM on Recombinant human MAO-B, less than 300 nM against Human LOXL2, greater than 3000 nM in experiment [2] and greater than 300 nM at Bovine LOX.

With `Cc1cc(-c2c(C)n(C/C(F)=C/CN)c3ccc(NS(C)(=O)=O)cc23)cc(C)n1` [Compound 102, (Z)—N-(1-(4-amino-2-fluorobut-2-en-1-yl)-3-(2,6-dimethylpyridin-4-yl)-2-methyl-1H-indol-5-yl)methanesulfonamide Dihydrochloride], the IC50 on Recombinant human MAO-B is greater than 3000 nM; against Human LOXL2 it was less than 300 nM; in experiment [2], greater than 3000 nM; at Bovine LOX, greater than 300 nM.

For `COCc1ccc2c(n1)c(-c1cccc(S(=O)(=O)N(C)C)c1)c(C)n2C/C(F)=C/CN` [Compound 103, (Z)-3-(1-(4-amino-2-fluorobut-2-en-1-yl)-5-(methoxymethyl)-2-methyl-1H-pyrrolo[3,2-b]pyridin-3-yl)-N,N-dimethylbenzenesulfonamide], the IC50 on Recombinant human MAO-B is greater than 3000 nM; against Human LOXL2, less than 300 nM; in experiment [2], greater than 3000 nM; at Bovine LOX, greater than 300 nM.

On to `Cc1c(-c2cccc(S(=O)(=O)N(C)C)c2)c2cc(NS(C)(=O)=O)ccc2n1C/C(F)=C/CN` [Compound 104, (Z)-3-(1-(4-amino-2-fluorobut-2-en-1-yl)-2-methyl-5-(methylsulfonamido)-1H-indol-3-yl)-N,N-dimethylbenzenesulfonamide Hydrochloride], for which the IC50 was greater than 3000 nM on Recombinant human MAO-B, less than 300 nM against Human LOXL2, greater than 3000 nM in experiment [2] and greater than 300 nM against Bovine LOX.

Turning to `Cc1c(-c2cccc(S(=O)(=O)N(C)C)c2)c2nc(N(C)C)ccc2n1C/C(F)=C/CN` [Compound 105, (Z)-3-(1-(4-amino-2-fluorobut-2-en-1-yl)-5-(dimethylamino)-2-methyl-1H-pyrrolo[3,2-b]pyridin-3-yl)-N,N-dimethylbenzenesulfonamide Dihydrochloride], the IC50 at Recombinant human MAO-B is greater than 3000 nM; on Human LOXL2, less than 300 nM; in experiment [2] it was greater than 3000 nM; against Bovine LOX, greater than 300 nM.

Regarding `Cc1c(-c2cccc(S(=O)(=O)N(C)C)c2)c2cc(S(=O)(=O)C(C)C)ccc2n1C/C(F)=C/CN` [Compound 106, (Z)-3-(1-(4-amino-2-fluorobut-2-en-1-yl)-5-(isopropylsulfonyl)-2-methyl-1H-indol-3-yl)-N,N-dimethyl-benzenesulfonamide Hydrochloride], the IC50 on Recombinant human MAO-B was greater than 3000 nM; against Human LOXL2 it was less than 300 nM; in experiment [2], greater than 3000 nM; on Bovine LOX, greater than 300 nM.

For the molecule `Cc1ccc2c(n1)c(-c1cccc(S(=O)(=O)N(C)C)c1)c(C)n2C/C(F)=C/CN` [Compound 107, (Z)-3-(1-(4-amino-2-fluorobut-2-en-1-yl)-2,5-dimethyl-1H-pyrrolo[3,2-b]pyridin-3-yl)-N,N-dimethylbenzenesulfonamide Dihydrochloride], the IC50 is greater than 3000 nM at Recombinant human MAO-B, less than 300 nM on Human LOXL2, greater than 3000 nM in experiment [2] and greater than 300 nM against Bovine LOX.

As for `Cc1c(-c2cccc(S(=O)(=O)N(C)C)c2)c2ncc(F)cc2n1C/C(F)=C/CN` [Compound 108, (Z)-3-(1-(4-amino-2-fluorobut-2-en-1-yl)-6-fluoro-2-methyl-1H-pyrrolo[3,2-b]pyridin-3-yl)-N,N-dimethylbenzenesulfonamide], the 50% inhibitory concentration (IC50) on Recombinant human MAO-B was greater than 3000 nM; against Human LOXL2 it was less than 300 nM; in experiment [2], greater than 3000 nM; at Bovine LOX, greater than 300 nM.

With `Cc1c(-c2cccc(S(=O)(=O)N(C)C)c2)c2nc(F)ccc2n1C/C(F)=C/CN` [Compound 109, (Z)-3-(1-(4-amino-2-fluorobut-2-en-1-yl)-5-fluoro-2-methyl-1H-pyrrolo[3,2-b]pyridin-3-yl)-N,N-dimethylbenzenesulfonamide], the concentration for half-maximal inhibition (IC50) at Recombinant human MAO-B is greater than 3000 nM; at Human LOXL2 it was less than 300 nM; in experiment [2], greater than 3000 nM; at Bovine LOX, greater than 300 nM.

In the case of `Cc1c(-c2cccc(S(=O)(=O)N(C)C)c2)c2nc(C(F)(F)F)ccc2n1C/C(F)=C/CN` [Compound 110, (Z)-3-(1-(4-amino-2-fluorobut-2-en-1-yl)-2-methyl-5-(trifluoromethyl)-1H-pyrrolo[3,2-b]pyridin-3-yl)-N,N-dimethylbenzenesulfonamide], the concentration for half-maximal inhibition (IC50) at Recombinant human MAO-B is greater than 3000 nM; against Human LOXL2 it was less than 300 nM; in experiment [2], greater than 3000 nM; on Bovine LOX it was greater than 300 nM.

As to `Cc1c(-c2cccc(S(=O)(=O)N(C)C)c2)c2nc(C(C)(F)F)ccc2n1C/C(F)=C/CN` [Compound 111, (Z)-3-(1-(4-amino-2-fluorobut-2-en-1-yl)-5-(1,1-difluoroethyl)-2-methyl-1H-pyrrolo[3,2-b]pyridin-3-yl)-N,N-dimethylbenzenesulfonamide Dihydrochloride], the half-maximal inhibitory concentration (IC50) was greater than 3000 nM at Recombinant human MAO-B, less than 300 nM at Human LOXL2, greater than 3000 nM in experiment [2] and greater than 300 nM against Bovine LOX.
